# What was measured:
# [1] = target: T1, Amine oxidase [flavin-containing] A (Homo sapiens, UniProt P21397); assay: Inhibition of MAO-A (unknown origin) by luciferase […] assay
# T1 sequence (P21397 whole entry): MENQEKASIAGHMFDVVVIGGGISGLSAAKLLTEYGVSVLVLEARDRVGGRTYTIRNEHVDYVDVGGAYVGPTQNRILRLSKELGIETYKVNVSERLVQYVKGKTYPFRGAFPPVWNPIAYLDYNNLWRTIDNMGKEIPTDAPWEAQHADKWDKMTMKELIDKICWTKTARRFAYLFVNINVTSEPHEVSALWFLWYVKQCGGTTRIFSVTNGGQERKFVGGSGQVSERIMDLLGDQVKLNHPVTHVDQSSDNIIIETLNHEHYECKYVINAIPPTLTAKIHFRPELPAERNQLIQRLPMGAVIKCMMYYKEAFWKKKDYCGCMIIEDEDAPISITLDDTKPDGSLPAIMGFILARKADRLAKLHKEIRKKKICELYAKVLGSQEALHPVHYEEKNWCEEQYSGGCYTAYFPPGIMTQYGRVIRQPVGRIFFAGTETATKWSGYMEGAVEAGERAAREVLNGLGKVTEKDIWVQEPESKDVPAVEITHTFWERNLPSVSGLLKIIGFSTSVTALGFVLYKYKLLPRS
# Enterococcus faecium [2] = assay: Antibacterial activity against Enterococcus faecium ATCC 700221 assessed as growth inhibition after 16 to 20 hrs by broth microdilution method; type: functional
# Staphylococcus aureus [3] = assay: Antibacterial activity against linezolid-resistant Staphylococcus aureus PTCC 100 assessed as growth inhibition after 16 to 20 hrs by broth microdilution method; type: functional
# Enterococcus faecalis [4] = assay: Antibacterial activity against Enterococcus faecalis ATCC 29212 assessed as growth inhibition after 16 to 20 hrs by broth microdilution method; type: functional
# Staphylococcus aureus [5] = assay: Antibacterial activity against methicillin-resistant Staphylococcus aureus ATCC 33591 assessed as growth inhibition after 16 to 20 hrs by broth microdilution method; type: functional
# Staphylococcus aureus [6] = assay: Antibacterial activity against methicillin-sensitive Staphylococcus aureus ATCC 29213 assessed as growth inhibition after 16 to 20 hrs by broth microdilution method; type: functional
# Escherichia coli = assay: Ratio of linezolid MIC to compound MIC for Escherichia coli; type: functional
# Enterococcus faecium [7] = assay: Ratio of linezolid MIC to compound MIC for multidrug-resistant Enterococcus faecium; type: functional
# Enterococcus faecalis [8] = assay: Ratio of linezolid MIC to compound MIC for multidrug-resistant Enterococcus faecalis; type: functional
# [9] = system: Staphylococcus epidermidis; assay: Ratio of linezolid MIC to compound MIC for multidrug-resistant Staphylococcus epidermidis; type: functional
# Staphylococcus aureus [10] = assay: Ratio of linezolid MIC to compound MIC for multidrug-resistant Staphylococcus aureus; type: functional
# Haemophilus influenzae [11] = assay: Ratio of linezolid MIC to compound MIC for Haemophilus influenzae; type: functional
# Enterococcus faecalis [12] = assay: Antibacterial activity against Enterococcus faecalis assessed as growth inhibition; type: functional
# [13] = system: Staphylococcus epidermidis; assay: Antibacterial activity against Staphylococcus epidermidis assessed as growth inhibition; type: functional
# Staphylococcus aureus [14] = assay: Antibacterial activity against methicillin-resistant Staphylococcus aureus assessed as growth inhibition; type: functional
# Haemophilus influenzae [15] = assay: Ratio of tedizolid MIC to compound MIC for Haemophilus influenzae; type: functional
# Enterococcus [16] = assay: Ratio of tedizolid MIC to compound MIC for Enterococcus spp; type: functional
# Streptococcus pneumoniae [17] = assay: Ratio of tedizolid MIC to compound MIC for Streptococcus pneumoniae; type: functional
# Staphylococcus aureus [18] = assay: Ratio of tedizolid MIC to compound MIC for methicillin-resistant Staphylococcus aureus; type: functional
# Streptococcus pneumoniae [19] = assay: Ratio of linezolid MIC to compound MIC for Streptococcus pneumoniae; type: functional
# Staphylococcus aureus [20] = assay: Ratio of linezolid MIC to compound MIC for methicillin-resistant Staphylococcus aureus; type: functional
# Enterococcus [21] = assay: Ratio of linezolid MIC to compound MIC for Enterococcus spp; type: functional
# [22] = system: Mycobacterium tuberculosis; assay: Ratio of mefloquine MIC to compound MIC for Mycobacterium tuberculosis H37Rv; type: functional
smiles,measurement,setting,value
Cn1nnc(-c2ccc(-c3ccc(N4C[C@H](CO)OC4=O)cc3F)cn2)n1 [TEDIZOLID],Ki,[1],< 2 µM
O=C(/C=C/c1ccccc1)NC[C@H]1CN(c2cc(F)c(N3CCN(C(=O)CNC(=O)c4cn5cccnc5n4)CC3)c(F)c2)C(=O)O1,MIC,Enterococcus faecium [2],0.25 µg/mL
same,MIC,Staphylococcus aureus [3],1 µg/mL
same,MIC,Enterococcus faecalis [4],0.125 µg/mL
same,MIC,Staphylococcus aureus [5],0.125 µg/mL
same,MIC,Staphylococcus aureus [6],0.125 µg/mL
CC(=O)NC[C@H]1CN(c2ccc(-c3ccc(C(=O)NN)cc3)c(F)c2)C(=O)O1,Ratio,Escherichia coli,2
same,Ratio,Enterococcus faecium [7],2
same,Ratio,Enterococcus faecalis [8],2
same,Ratio,[9],2
same,Ratio,Staphylococcus aureus [10],2
same,Ratio,Haemophilus influenzae [11],2
CC(=O)NC[C@H]1CN(c2ccc(N3CCN(C(=O)C(Cl)Cl)CC3)c(F)c2)C(=O)O1,MIC,Enterococcus faecalis [12],0.5 µg/mL
same,MIC,[13],1 µg/mL
same,MIC,Staphylococcus aureus [14],1 µg/mL
CC(=O)NC[C@H]1CN(c2ccc(N3CCOCC3)c(F)c2)C(=O)O1 [LINEZOLID],Ki,[1],7.9 µM
CC(=O)NC[C@H]1CN(c2ccc(N3C=NN(C)CC3)c(F)c2)C(=O)O1,Ki,[1],4 µM
CC(=O)NC[C@H]1CN(c2ccc(N3CCN(C(=O)CCl)CC3)c(F)c2)C(=O)O1,MIC,Enterococcus faecalis [12],0.5 µg/mL
same,MIC,[13],1 µg/mL
same,MIC,Staphylococcus aureus [14],1 µg/mL
O=C1O[C@@H](CO)CN1c1ccc(-c2ccc(N3CCOC3=O)nc2)c(F)c1,Ratio,Haemophilus influenzae [15],2
same,Ratio,Enterococcus [16],2
same,Ratio,Streptococcus pneumoniae [17],2
same,Ratio,Haemophilus influenzae [11],8
same,Ratio,Staphylococcus aureus [18],2
same,Ratio,Streptococcus pneumoniae [19],8
same,Ratio,Staphylococcus aureus [20],8
same,Ratio,Enterococcus [21],8
CCOC(=O)c1cc(COc2cc(C(F)(F)F)nc3c(C(F)(F)F)cccc23)on1,Ratio,[22],14.4
CN1CCN(c2ccc(N3C[C@H](COC(N)=S)OC3=O)cc2F)C=N1,Ki,[1],4 µM

# Source: ChEMBL document CHEMBL2390905, “Recent development of potent analogues of oxazolidinone antibacterial agents” (Bioorg Med Chem, 2013)
